Measurements published in US5098933A, “Pharmaceutically useful Michael addition products of unsaturated aldehydes and ketones and ascorbic acid” (Theracel Corporation, priority 1990, dated 1992).
Where “and” joins values, the source holds several entries; their conditions need not be identical. Equal values may be shown once. Entries after “also recorded” stand apart in the source; their conditions may differ.

Tests used:
splenic lymphocytes = assay: Immunomodulation panel: lymphocyte blastogenesis (Con-A, PHA, PWM); assay type: in vivo, C57BL/6J mice
Procedure: Daily intraperitoneal injections of KCPBL were administered to normal animals and immunological responsiveness to mitogens and specific antigen evaluated.
Doses and schedule--Doses were selected to bracket the range generally known to be immunostimulatory in past experiments, 1, 10, and […] daily for four days.
As an assessment of immunopathology in the above screening test panel, the cellularity of the spleen was evaluated by determination of the total number of splenocytes harvested. Humoral-mediated immunity was measured by enumerating IgM plaque-forming cells to the T-dependent antigen sheep erythrocytes. Cell-mediated immunity was evaluated as described above by determination of the ability of the splenocytes to produce the lymphokine interleukin-2 in response to stimulation by the mitogen concanavalin-A. Another measurement of cell-mediated immunity was the responsiveness of the splenic lymphocytes to the mitogens concanavalin-A (Con-A); phytohemagglutinin (PHA) and pokeweed mitogen (PWM) in the lymphocyte blastogenesis assay. In the latter test, the activation and proliferation of the lymphocytes to the mitogens represents the capability of the cells to sequentially pass from G0 to G1 and the S phse of the cell cycle. The responsiveness of the cells was measured by the uptake of radiolabeled 14C-thymidine.

CD-1 male mice [1] = assay: Parenteral Toxicity--LD50 in mice
Procedure: (§1) The objective of this experiment was to determine the LD50 value for KCPBL when administered intraperitoneally to mice in a standard LD50 test procedure.
(§2) The test animals were CD-1 male mice. The mean weight for these animals on the day of test product administration was 25.5 grams.
(§3) KCPBL (lot 101, consisting of 42% stereoisomer A and 58% stereoisomer B) was dissolved in pyrogen-free normal (0.85%) saline (NaCl).
(§4) Five animals constituted each treatment group.
(§5) Each mouse received 0.5 ml by intraperitoneal (i.p.) injection, using a 3.0 cc syringe fitted with a 23-gauge needle.
(§6) All mice were observed daily for signs, symptoms and survival for three days. Survival statistics were determined after third day.
(§7) Two mice were randomly selected from the control and high dose test group for sacrifice and selection of tissues for histopatholigic examination.
(§8) LD50 was calculated by the method of Spearman & Karber: Basic Exercises in Immunochemistry, A. Nowatny (Ed); Pg 184-85, Springer-Verlag,N.J.

[2] = Parenteral Toxicity--LD50 in mice; details: mouse, in vivo, ip
Procedure: as §1, §2, §3, §4, §5, §6, §7, §8

CD-1 male mice [3] = assay: Oral Toxicity, single high dose in mice; assay type: in vivo; details: 5000 mg/kg p.o., 14 days
Procedure: The objective of this experiment was to observe the clinical effects associated with the peroral administration of a single high dose of KCPBL to mice.
The test animals were CD-1 male mice.
Nine animals constituted the active peroral treatment group; eight animals were used in the vehicle control group.
Each mouse received a single 0.2 ml peroral (p.o.) dose using a 1.0 cc syringe fitted with a curved gavage needle.
Survival statistics were determined after the fourteenth day. All surviving mice were sacrificed on the fifteenth day, selected organs removed and weighed on a AE 100 Mettler balance and then fixed in formalin for histopathologic examination.

CD-1 mice = assay: Immunotoxicity--Multi-dose: survival, weight, organ and histopathology assessment; assay type: in vivo; details: for Organ weight, Kidney / Organ weight, Liver / Organ weight, Lung / Organ weight, Spleen / Organ weight, Tail: individual animals A, B
Procedure: The immunotoxicological potential of KCPBL was evaluated in this experiment in which the study drug was administered to CD-1 mice for fourteen days (100 or 1000 mg/kg/day), either perorally (by gavage) or intravenously (tail vein). On the fifteenth day, the mice were weighed and sacrificed. The spleen, lungs, liver, kidneys and thymus were removed from each animal, fixed in formalin and histopathologically evaluated. In addition, a differential white blood cell count was obtained for a peripheral blood sample as well as the following tests performed: spleen cell counts (performed with Coulter Counter) and lymphocyte stimulation assays using PHA, CON-A and PWM techniques.
CD-1 mice were obtained from Charles Rivers Laboratories. The mice were quarantined for at least one week in a separate holding room prior to use in this experiment. Five mice per treatment were used. The mice were housed in a Thoren positive pressure laminar flow Maximizer caging system with each case controlled for water and air flow. The mouse rooms are maintained on a 12-hour light/dark cycle at a constant temperature of 76° F.
KCPBL containing approximately 50:50 ratio of the two epimers as determined by HPLC and optical rotation analysis was used in this study. An amount of drug was calculated to deliver the equivalent of 100 or 1000 mg/kg, either by the oral or intravenous route. The average weight of the mice was 29.5 grams.
[…] Mice were administered KCPBL daily for a total of fourteen days via the oral (0.2 ml of a 147.5 mg/ml solution or a 29.5 mg/ml solution by gavage) and intravenous route (0.2 ml of 147.5 mg/ml solution or a 29.5 mg/ml solution by tail vein) to achieve a dose of 100 or 1000 mg/kg, respectively. The test dose was prepared fresh daily and dissolved in sterile non-pyrogenic saline. On the fifteenth day the mice were weighed, sacrificed, and the spleens, lungs, livers, kidneys and thymuses removed. These organs were weighed and, except for the spleens, the formalin-fixed organs were analyzed by a veterinary pathologist. Only two randomly-selected sets of animal organs per treatment group were histopathologically evaluated since the remaining three animals were used to isolate splenic lymphocytes for use in cellular immunoassays.
A leukocyte differential was obtained on peripheral blood samples and spleen cell counts (performed with Coulter Counter), and an IL-2 induction assessment as well as standard lymphocyte stimulation assays using PHA, CON-A and PWM conducted.
Survival was assessed through the fifteenth day. All the surviving mice were sacrificed on the fifteenth day, predetermined organs removed, place in formalin, and subjected to for histopathologic examination by a veterinary pathologist.
The individual spleens of three mice from control and test groups were processed to isolate lymphocytes and the protocols for lymphocyte blastogenesis, IL-2 induction and assay were performed. The remaining two mice in each group were sacrificed and their lungs, liver, kidney, and spleen were fixed in formalin and sent to AnMed Biosafe for histopathologic examination.

[4] = group 2 (1000 mg/kg P.O.), 1000 mg/kg
[5] = group 3 (1000 mg/kg IV), 1000 mg/kg
[6] = group 5 (100 mg/kg IV), 100 mg/kg

## O=C1CCC(C2(O)C(=O)OC3C(O)COC32O)C1 (stereo not drawn) [KCPBL]
Splenic lymphocytes; 1.0 mg/kg i.p.
  Lymphocyte Blastogenesis, PHA: 5176 ± 1185 Counts per minute
  Lymphocyte Blastogenesis, PWM: 1977 ± 540 Counts per minute
  Lymphocyte Blastogenesis, RPMI: 95 ± 66 Counts per minute
Splenic lymphocytes; 10 mg/kg i.p.
  Lymphocyte Blastogenesis, Con-A: 10074 ± 1881 Counts per minute
  Lymphocyte Blastogenesis, PHA: 5590 ± 864 Counts per minute
  Lymphocyte Blastogenesis, RPMI: 95 ± 54 Counts per minute
Splenic lymphocytes; drug-treated animals
  reactivity of splenocytes to PHA: reactivity to PHA was not affected
  responsiveness of splenocytes to Con-A: slightly more responsive to Con-A
  responsiveness of splenocytes to PWM: significant increases in the responsiveness
CD-1 male mice [1]; highest dose level, i.p.
  deaths: Only two animals died
CD-1 male mice [1]; mouse, in vivo
  organ histopathology (lungs, liver, kidneys): no significant deviations in organ histopathology
CD-1 male mice [1]; mouse, in vivo, ip
  overt signs or symptoms of toxic response: no overt signs or symptoms observed
[2]
  LD50 at 72 h: ~8570 mg/kg
CD-1 male mice [3]
  deaths: One mouse in the KCPBL group died on the 12th day
CD-1 male mice [3]; listed as BL-012
  deaths: Only one animal died
CD-1 mice; 100 mg/kg IV (group 5)
  PMV:Mono ratio: 10/90
CD-1 mice; 1000 mg/kg IV (group 3)
  PMV:Mono ratio: 11/89
CD-1 mice; 1000 mg/kg P.O. (group 2)
  PMV:Mono ratio: 21/79
CD-1 mice; 100 or 1000 mg/kg, either route
  generalized toxicity / immunotoxic effect: None of the mice showed evidence of generalized toxicity; also recorded: no evidence of a immunotoxic effect
CD-1 mice; 100 or 1000 mg/kg/day, 14 days, i.v. or p.o.
  weight loss: No clinically significant weight loss
CD-1 mice; 14 days dosing
  survival / deaths: Except for treatment group 4 (KCPBL 100 mg/kg perorally), all animals survived to the conclusion of the trial; also recorded: In group 4, two animals were found dead on day 4 and another animal dead on day 10
CD-1 mice; [4]
  Organ weight, Kidney: 271.7 mg and 269.8 mg
  Organ weight, Liver: 1710 mg and 1780 mg
  Organ weight, Lung: 192.5 mg and 175.8 mg
  Organ weight, Spleen: 102.6 mg and 103.7 mg
  Organ weight, Tail: 236.2 mg and 229.1 mg
CD-1 mice; [5]
  Organ weight, Kidney: 287.1 mg and 225.3 mg
  Organ weight, Liver: 1760 mg and 1310 mg
  Organ weight, Lung: 209.1 mg and 177.1 mg
  Organ weight, Spleen: 110.8 mg and 75.6 mg
  Organ weight, Tail: 235.8 mg and 239.6 mg
CD-1 mice; [6]
  Organ weight, Kidney: 235.4 mg and 377.9 mg
  Organ weight, Liver: 1570 mg and 2350 mg
  Organ weight, Lung: 177.9 mg and 192.3 mg
  Organ weight, Spleen: 88.7 mg and 104.2 mg
  Organ weight, Tail: 215.1 mg and 248.2 mg
CD-1 mice; groups 1, 2, 3, and 5
  Histopathology (lung, liver, kidney, spleen, thymus, tail): all tissues examined were considered to be within the normal range
CD-1 mice; peripheral blood, granulocyte and mononuclear cells
  WBC differentials: within normal limits
CD-1 mice; vs sham-injected controls
  organ systems (weights, histopathological assessments): within normal weight limits
